Key:
[1] = tested on: human articular chondrocytes; assay: Increase of intracellular cAMP in human articular chondrocytes (cAMP EIA); format: cell-based; settings: PGE2 1 μM, 30 minutes, vehicle 0.4
Method: Human articular cartilage (articular cartilage of degenerative malum coxae patient) was soaked in phosphate buffer (pH 7.2) and only the cortical layer of the joint portion was scrapped with, a knife into a 50 ml tube containing same buffer. The collected knee joint cortical layer was cut into as small sections as possible on a dish with a razor and transferred to a centrifuge tube.
To the centrifuge tube, phosphate buffer (pH 7.2) containing 1 mg/ml of hyaluronidase (SIGMA: Cat. No. H-3506) was added and shaken at 37° C. for 15 minutes. The precipitates were separated by centrifugation (2,000 rpm, 5 minutes) and added to Hank's balanced salt solution (GIBCO; Cat. No. 15050-065) containing 0.25% trypsin and shaken at 37° C. for 30 minutes.
After separation of precipitates by centrifugation (2,000 rpm, 5 minutes), α-minimum essential medium (GIBCO; Cat. No. 12571-063) containing 0.25% collagenase for cell diffusion (Wako Pure Chemical Industries, Ltd., 034-10533) and 10% fetal calf serum (GIBCO; Cat. No. 10099-141) were added to the precipitates and shaken at 37° C. overnight.
Cartilage fragments were removed using a 40 μm Cell Strainer (FALCON; Cat. No. 2340), and α-minimum essential medium containing 10% fetal calf serum was added to the collagenase-treated cells and centrifuged (1,400 rpm, 10 minutes).
The precipitates were washed three times with α-minimum essential medium containing 10% fetal calf serum and suspended in the same medium to an appropriate volume and seeded into 48-well plates (50,000 cells/well). On the next day, the medium was replaced with α-minimum essential medium containing 10% fetal calf serum. The α-minimum essential medium used contained antibiotics (100 U/ml penicillin G and 100 μg/ml streptomycin sulfate) and an antifungal (0.25 μg/ml amphotericin B) (GIBCO; Cat. No. 15240-062). […]
After 30 minutes cultivation, medium was discarded. […] The residue was dissolved in an assay buffer attached with cAMP EIA system (Amersham Pharmacia Biotech; Cat. No. RPN225) and cAMP concentration was measured with said system.

articular chondrocytes = assay: Increase of matrix production of articular chondrocytes (Alcian blue staining of proteoglycan); format: cell-based, rabbit; settings: for Proteoglycan Production (%): cultivation until day 5, vehicle = 100; for matrix production promoting activity: summary of Table 1
Method: Four NZW line rabbits (Kitayama Labes., Co Ltd.; male; 4-week-old) were sacrificed with bleeding under ether anesthesia and femur knee joints were collected aseptically. The collected knee joints were stored in phosphate buffer (pH 7.2) containing 0.2% glucose and only the cortical layer of knee joint was scrapped with a surgical knife into a 50 ml tube containing phosphate buffer (pH 7.2) containing 0.2% glucose. The collected knee joint cortical layer was cut into as small sections as possible on a dish with a razor and shaken at 37° C. for 15 minutes in phosphate buffer containing 0.2% glucose, supplied with 10× trypsin-ethylenediamine tetraacetic acid (EDTA)·4 Na salt (GIBCO; Cat. No. 15400-054) (50 ml, with 100 mg of trypsin and 40 mg of EDTA·4Na; pH 7.2). After shaking, the sample was centrifuged (1,400 rpm) to collect precipitates, and the precipitates were washed twice with 40 ml of phosphate buffer containing 0.2% glucose. The washed precipitates were combined with 40 ml of serum-free α-minimum essential medium (MEM: GIBCO; Cat: No. 12571-063) containing 60 mg of collagenase for cell diffusion (Wako Pure Chemical Industries, Ltd., 034-10533) and transferred to a 100 ml beaker containing a sterilized stirrer bar. Under stirring with the stirrer bar, the collagenase digestion was carried on for about 1 hour in a CO2 incubator at 37° C. Cartilage fragments were removed from the collagenase-treated cells using a […] Cell Strainer ([FALCON; Cat. No. 2340]). To the residual treated cells was added 10 ml of α-MEM medium containing 10% fetal calf serum (FCS), and centrifuged (1,400 rpm). The precipitates were washed with 10% FCS-αMEM medium twice, suspended in appropriate volume of the same medium and the resultant suspension was seeded into collagen type II (Wako Pure Chemical Industries, Ltd., 033-13901)-coated plates (48 well) at 20,000 cells/well. On the next day, the medium was replaced with 10% FCS-αMEM medium.
When cells reached to confluent after the medium exchange procedure above, the medium for test group was replaced with test compound-containing medium (including 0.1% dimethylsulfoxide as a vehicle). As a medium to which a test compound is added, 10% FCS-αMEM medium containing 0.2 mM ascorbic acid was used. The day on which test compound-containing medium was added for the first time was defined as “day 1”. The medium exchange with the same medium was again conducted at day 3 and the cultivation continued until day 5. As to the control group, the medium was exchanged at the same time using the same medium as the test group except that it is free of test compound (containing vehicle only), and the cultivation was carried out in the same manner. After completion of cultivation, the supernatant was removed from the culture medium. Cells were fixed by addition of 0.25 ml of neutral buffer containing 4% paraformaldehyde and incubation for 2 hours. Cells were washed three times with 1 ml of phosphate buffer (pH 7.2) and then stained for 4 hours with 0.1% Alcian blue 8GX (Sigma; A3157) dissolved in 0.1 M hydrochloric acid, which Alcian blue selectively stains cartilage matrix proteoglycan. After staining, the cells were washed 3 times with 1 ml of phosphate buffer (pH 7.2). Alcian blue which had stained cartilage matrix was dissolved with 0.25 ml of aqueous 6 M guanidine hydrochloride solution and a portion of the solution was used to determine the absorbance at 620 nm. The amounts of Alcian blue used for staining was calculated from the absorbance, which in turn was used for the estimation of the amount of matrix (proteoglycan).

Compound | cAMP Production (picomol/well) ([1]; 1 × 10^−5) | Proteoglycan Production (%) (articular chondrocytes; 1 × 10^−6 M) | matrix production promoting activity (articular chondrocytes) | cAMP Production (picomol/well) ([1]; 1 × 10^−6) | Proteoglycan Production (%) (articular chondrocytes; 1 × 10^−5 M)
COc1ccc(C(=O)Nc2c(Cl)cncc2Cl)cc1OC1CCCC1 [Compound (11)] | 10.6 picomol/well | 112% | exert matrix production promoting activity |  | 
CCOc1cc2cc(CO)c(CO)c(-c3ccnc(-n4nc(-c5cccnc5)c5ccccc5c4=O)c3)c2cc1OCC [Compound (2)] | 23.2 picomol/well | 125% | exert matrix production promoting activity | 13.8 picomol/well | 128%

Source: patent publication US8399466B2, “Composition for regenerative treatment of cartilage disease” (Mitsubishi Tanabe Pharma Corporation, priority 2001, dated 2013)
